Literature values in patent US12409165B2, “Pharmaceutical composition comprising eltrombopag bis(monoethanolamine)” (SYNTHON B.V., priority 2019, dated 2025).

Columns and labels:
[1] = qualitative statement in the background, no method given
[2] = qualitative statement in the background, no method given; remark: listed apart in the source

In the case of `CC1=NN(c2ccc(C)c(C)c2)C(=O)/C1=N\Nc1cccc(-c2cccc(C(=O)O)c2)c1O.NCCO.NCCO` [Eltrombopag bis(monoethanolamine), 3′-{(2Z)-2-[1-(3,4-dimethylphenyl)-3-methyl-5-oxo-1,5-dihydro-4H-pyrazol-4-ylidene]hydrazino}-2′-hydroxy-3-biphenyl-carboxylic acid bis(monoethanolamine)], the solubility [1] is given as “low” and the permeability [2] is given as “medium”.
